Laboratory results published in patent US8318914B2, “Elongases and methods for producing polyunsaturated fatty acids in transgenic organisms” (priority 2007, dated 2012).
Like-named read-outs stand apart in the source and are kept apart here.

How the values were obtained:
[1] = test system: yeast strain INVSC-1 with empty vector pYES2.1/V5-His-TOPO; assay: Vector control of Example 5: yeast with empty vector pYES2.1/V5-His-TOPO fed fatty acids; format: cell-based; conditions: 250 μM fatty acid fed to yeast INVSC-1, 12 h induction medium
Description: Plasmid pYES-D9Elo(Ro) was transformed into the yeast strain INVSC-1 (Invitrogen) following the manufacturer's instructions and selected on plates with DOB-U agar on the basis of uracil auxotrophy. Positive colonies were identified by PCR. To this end, in each case 1 μl of defrosted cells, 200 μM dNTPs, 2.5 U Taq polymerase and 100 pmol of each primer were used to carry out in a total volume of 50 μl. The PCR conditions were as follows: first denaturation at 95° C. for 5 minutes, followed by 30 cycles of 30 seconds at 94° C., 1 minute at 55° C. and 2 minutes at 72° C., and a last elongation step for 10 minutes at 72° C. In parallel, the empty vector pYES2.1/V5-His-TOPO was transformed in the abovedescribed manner into competent yeast cells of the strain INVSC-1. Yeast cells with the plasmid pYES-D9Elo(Ro) and pYES2.1/V5-His-TOPO were incubated for 12 h in liquid DOB-U medium at 28° C., 200 rpm, and then for a further 12 h in induction medium (DOB-U+2% (w/v) galactose+2% (w/v) raffinose) and 250 μM of fatty acids added to the medium. The specificity and activity of the gene to be characterized can be determined with reference to the added fatty acids.
(§1) The yeast cells from the main cultures were harvested by centrifugation (100×g, 5 min, 20° C.) and washed with 100 mM NaHCO3, pH 8.0 to remove residual medium and fatty acids. Starting with the yeast cell sediments, fatty acid methyl esters (FAMEs) were prepared by acid methanolysis. To this end, the cell sediments were incubated for one hour at 80° C. together with 2 ml of 1 N methanolic sulfuric acid and 2% (v/v) of dimethoxypropane. The FAMEs were extracted twice with petroleum ether (PE). To remove nonderivatized fatty acids, the organic phases were washed in each case once with 2 ml of 100 mM NaHCO3, pH 8.0 and 2 ml of distilled water. Thereafter, the PE phases were dried with Na2SO4, evaporated under argon and taken up in 100 μl of PE. The samples were separated on a DB-23 capillary column (30 m, 0.25 mm, 0.25 μm, Agilent) in a Hewlett-Packard 6850 gas chromatograph equipped with flame ionization detector. The conditions for the GLC analysis are as follows: the oven temperature was programmed from 50° C. to 250° C. with an increment of 5° C./min and finally 10 min at 250° C. (holding).
The signals are identified by comparing the retention times with corresponding fatty acid standards (Sigma). The methodology is described for example in Napier and Michaelson, 2001, Lipids. 36(8):761-766; Sayanova et al., 2001, Journal of Experimental Botany. 52(360):1581-1585, Sperling et al., 2001, Arch. Biochem. Biophys. 388(2):293-298 and Michaelson et al., 1998, FEBS Letters. 439(3):215-218.

D9Elo(Ro) = format: cell-based, Rhizopus oryzae; conditions: 250 μM fatty acid fed to transformed yeast INVSC-1, 12 h induction medium
Description: Positive colonies were identified by PCR. […] In parallel, the empty vector pYES2.1/V5-His-TOPO was transformed in the abovedescribed manner into competent yeast cells of the strain INVSC-1. […] The specificity and activity of the gene to be characterized can be determined with reference to the added fatty acids.
as §1, with “The samples were separated on a DB-23 capillary column (30 m, 0.25 mm, 0.25 μm, Agilent) in a Hewlett-Packard 6850 gas chromatograph equipped with flame ionization detector.” left out
(§2) The signals are identified by comparing the retention times with corresponding fatty acid standards (Sigma). […] Biochem. Biophys.

[2] = test system: yeast strain INVSC-1 with empty vector pYES2.1/V5-His-TOPO; assay: Vector control of Example 4: yeast with empty vector pYES2.1/V5-His-TOPO fed fatty acids; format: cell-based; conditions: blank vector control; 250 μM fatty acid fed to yeast INVSC-1, 12 h induction medium
Description: (§3) Plasmid pYES-d6Elo(Pir) was then transformed into the yeast strain INVSC-1 (Invitrogen) following the manufacturer's instructions and selected on plates with DOB-U agar on the basis of uracil auxotrophy. Positive colonies were identified by PCR. To this end, in each case 1 μl of defrosted cells, 200 μM dNTPs, 2.5 U Taq-polymerase and 100 pmol of each primer were used to carry out in a total volume of 50 μl. The PCR conditions were as follows: first denaturation at 95° C. for 5 minuten, followed by 30 cycles of 30 seconds at 94° C., 1 minute at 55° C. and 2 minutes at 72° C., and a last elongation step for 10 minutes at 72° C. In parallel, the empty vector pYES2.1/V5-His-TOPO was transformed in the abovedescribed manner into competent yeast cells of the strain INVSC-1. Yeast cells with the plasmid pYES-d6Elo(Pir) and pYES2.1/V5-His-TOPO, respectively, were incubated for 12 h in liquid DOB-U medium at 28° C., 200 rpm, and then for a further 12 h in induction medium (DOB-U+2% (w/v) galactose+2% (w/v) raffinose) and 250 μM of fatty acids added to the medium. The specificity and activity of the gene to be characterized can be determined with reference to the added fatty acids.
as §1, with “The samples were separated on a DB-23 capillary column (30 m, 0.25 mm, 0.25 μm, Agilent) in a Hewlett-Packard 6850 gas chromatograph equipped with flame ionization detector.” left out
as §2
(§4) Table 3 describes the reaction of fatty acids by the plasmids which had been introduced into the yeasts. The conversion rates for the various exogenously added fatty acids are indicated in percent elongation efficiency. The blank vector pYES2.1/V5-His-TOPO acts as control for the activity of the gene sequence D6Elo(Pir). Fatty acids which have been formed in the yeasts with the vector pYES-D6Elo(Pir), but not in yeasts with the vector pYES2.1/V5-His-TOPO, can be attributed to the activity of the D6Elo(Pir) translation product.

D6Elo(Pir) = assay: Yeast feeding assay: elongation of fed fatty acids by yeast expressing pYES-D6Elo(Pir), GC analysis of FAMEs; format: cell-based, Pythium irregulare; conditions: for Elongation efficiency in percent, pYES-D6Elo(Pir): 250 μM fatty acid fed to transformed yeast INVSC-1, 12 h induction medium, (area product/area substrate + product)*100
Description: as §3
as §1, with “The samples were separated on a DB-23 capillary column (30 m, 0.25 mm, 0.25 μm, Agilent) in a Hewlett-Packard 6850 gas chromatograph equipped with flame ionization detector.” left out
as §2, §4

D5Elo(Eg) = format: cell-based, Euglena gracilis
Description: Plasmid pYES-D5Elo(Eg) was then transformed into the yeast strain INVSC-1 (Invitrogen) following the manufacturer's instructions and selected on plates with DOB-U agar on the basis of uracil auxotrophism. […] In parallel, the empty vector pYES2.1/V5-His-TOPO was transformed in the abovedescribed manner into competent yeast cells of the strain INVSC-1. Yeast cells with the plasmid pYES-D5Elo(Eg) and pYES2.1/V5-His-TOPO were incubated for 12 h in liquid DOB-U medium at 28° C., 200 rpm, and then for a further 12 h in induction medium (DOB-U+2% (w/v) galactose+2% (w/v) raffinose) and 250 μM of fatty acids added to the medium. The specificity and activity of the gene to be characterized can be determined with reference to the added fatty acids. […]
The substrate specificity of D5Elo(Eg) [SEQ ID NO: 8] was determined after expression and feeding of various fatty acids (FIG. 2). […] In FIG. 2A, yeasts were analyzed which had not been fed exogenously added fatty acids. […] In FIG. 2C, the yeast cells were analyzed after transformation with plasmid pYES-D5Elo(Eg) and feeding the fatty acid 20:4Δ5,8,11,14. […] In FIG. 2D, the yeast cells were analyzed after transformation with plasmid pYES-D5Elo(Eg) and feeding the fatty acid 20:5Δ5,8,11,14,17.

[3] = test system: yeast strain INVSC-1 with empty vector pYES2.1/V5-His-TOPO; assay: Vector control of Example 6: yeast with empty vector pYES2.1/V5-His-TOPO fed fatty acids; format: cell-based; conditions: 250 μM fatty acid fed to yeast INVSC-1, 12 h induction medium
Description: Plasmid pYES-D5Elo(Eg) was then transformed into the yeast strain INVSC-1 (Invitrogen) following the manufacturer's instructions and selected on plates with DOB-U agar on the basis of uracil auxotrophism. Positive colonies were identified by PCR. To this end, in each case 1 μl of defrosted cells, 200 μM dNTPs, 2.5 U Taq polymerase and 100 pmol of each primer were used to carry out in a total volume of 50 μl. The PCR conditions are as follows: first denaturation at 95° C. for 5 minutes, followed by 30 cycles of 30 seconds at 94° C., 1 minute at 55° C. and 2 minutes at 72° C., and a last elongation step for 10 minutes at 72° C. In parallel, the empty vector pYES2.1/V5-His-TOPO was transformed in the abovedescribed manner into competent yeast cells of the strain INVSC-1. Yeast cells with the plasmid pYES-D5Elo(Eg) and pYES2.1/V5-His-TOPO were incubated for 12 h in liquid DOB-U medium at 28° C., 200 rpm, and then for a further 12 h in induction medium (DOB-U+2% (w/v) galactose+2% (w/v) raffinose) and 250 μM of fatty acids added to the medium. The specificity and activity of the gene to be characterized can be determined with reference to the added fatty acids.
The yeast cells from the main cultures were harvested by centrifugation (100×g, 5 min, 20° C.) and washed with 100 mM NaHCO3, pH 8.0 to remove residual medium and fatty acids. […]

Row | SMILES | Elongation efficiency as a percentage, pYes2.1/V5-His-TOPO [1] | Elongation efficiency as a percentage, D9Elo(Ro) (D9Elo(Ro)) | Elongation efficiency in percent, pYES2.1/V5-His-TOPO [2] | Elongation efficiency in percent, pYES-D6Elo(Pir) (D6Elo(Pir)) | Elongation efficiency as a percentage, D5Elo(EG) (D5Elo(Eg)) | Elongation efficiency as a percentage, pYes2.1/V5-His-TOPO [3] | Elongation efficiency as a percentage, D5Elo(EG) (D5Elo(Eg); 250 μM fatty acid fed to transformed yeast INVSC-1, 12 h induction medium) | Substrate preference of D6Elo(Pir), in words (D6Elo(Pir); yeast feeding, summary of Table 3)
1 | CC/C=C\C/C=C\C/C=C\CCCCCCCC(=O)O [18:3Δ9, 12, 15, linolenic acid] | 0.0% | 49.3% | 1.4% | 19.1% |  |  |  | 
2 | CCCCC/C=C\C/C=C\C/C=C\CCCCC(=O)O [18:3Δ6, 9, 12, γ-linolenic acid] |  |  | 1.3% | 27.1% | 2.9% | 0.9% |  | 
3 | CCCCCC/C=C\CCCCCCCCCC(=O)O [18:1Δ11, cis-vaccenic acid] |  |  | 0.0% | 28.6% |  |  |  | 
4 | CCCCC/C=C\C/C=C\CCCCCCCC(=O)O [18:2Δ9, 12, linoleic acid] | 0.0% | 19.3% | 1.1% | 11.1% |  |  |  | 
5 | CC/C=C\C/C=C\C/C=C\C/C=C\CCCCC(=O)O [18:4Δ6, 9, 12, 15, stearidonic acid] |  |  | 1.2% | 38.7% |  |  |  | 
6 | CCCCCCCC/C=C\CCCCCCCC(=O)O [18:1Δ9, oleic acid] | 0.0% | 8.3% |  |  |  |  |  | 
7 | CCCCC/C=C\C/C=C\C/C=C\C/C=C\CCCC(=O)O [20:4Δ5, 8, 11, 14, arachidonic acid] |  |  | 0.0% | 6.7% |  | 0.0% | 46.1% | Less activity
8 | CCCCCC/C=C\CCCCCCCC(=O)O [16:1A9] | 2.4% | 36.6% |  |  |  |  |  | 
